In patent US11220502B2, “Sulfone compounds and derivatives for the treatment and prophylaxis of virus infection” (Hoffmann-La Roche Inc., priority 2018, dated 2022):
Read-outs that look alike come from different tables or passages of the source.

Key:
human TLR7 = target: T1, human TLR7 (Homo sapiens, UniProt Q9NYK1); test: HEK293-Blue-hTLR-7 cells assay (SEAP reporter, NF-κB activation); type: cell-based; conditions: for EC50: HEK293-Blue-hTLR-7 cells, 20 hrs incubation, SEAP reporter; for Ratio (EC50(prodrug)/EC50(active form)): calculated ratio of prodrug EC50 to EC50 of corresponding active form
T1 sequence (Q9NYK1 27-1049): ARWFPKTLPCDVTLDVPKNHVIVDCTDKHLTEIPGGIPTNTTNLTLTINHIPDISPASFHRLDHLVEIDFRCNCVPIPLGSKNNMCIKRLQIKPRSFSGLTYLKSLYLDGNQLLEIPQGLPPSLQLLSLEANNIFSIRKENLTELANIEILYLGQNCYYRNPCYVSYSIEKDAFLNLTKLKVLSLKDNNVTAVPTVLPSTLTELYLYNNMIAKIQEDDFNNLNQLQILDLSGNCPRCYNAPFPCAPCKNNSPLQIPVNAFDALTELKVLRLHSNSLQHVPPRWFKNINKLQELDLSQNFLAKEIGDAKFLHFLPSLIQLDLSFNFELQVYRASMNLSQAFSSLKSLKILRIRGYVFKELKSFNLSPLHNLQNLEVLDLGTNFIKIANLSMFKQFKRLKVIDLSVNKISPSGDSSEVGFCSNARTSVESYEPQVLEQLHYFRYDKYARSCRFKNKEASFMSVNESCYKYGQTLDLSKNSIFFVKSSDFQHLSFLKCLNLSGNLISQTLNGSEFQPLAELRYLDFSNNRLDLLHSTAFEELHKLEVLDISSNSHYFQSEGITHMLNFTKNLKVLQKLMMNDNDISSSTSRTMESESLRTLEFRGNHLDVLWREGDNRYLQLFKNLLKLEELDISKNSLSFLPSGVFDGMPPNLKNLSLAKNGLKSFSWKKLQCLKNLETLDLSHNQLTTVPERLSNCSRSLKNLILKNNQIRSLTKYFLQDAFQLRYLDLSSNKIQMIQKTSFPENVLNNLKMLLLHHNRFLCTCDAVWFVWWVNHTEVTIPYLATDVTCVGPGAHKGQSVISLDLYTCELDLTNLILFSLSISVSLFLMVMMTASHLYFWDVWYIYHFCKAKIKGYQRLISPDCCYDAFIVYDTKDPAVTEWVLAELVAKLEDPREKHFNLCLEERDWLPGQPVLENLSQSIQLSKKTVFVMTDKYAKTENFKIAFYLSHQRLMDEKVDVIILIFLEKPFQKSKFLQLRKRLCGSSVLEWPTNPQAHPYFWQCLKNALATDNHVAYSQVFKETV
Text: HEK293-Blue-hTLR-7 Cells Assay
A stable HEK293-Blue-hTLR-7 cell line was purchased from InvivoGen (Cat. #: hkb-ht1r7, San Diego, Calif., USA). These cells were designed for studying the stimulation of human TLR7 by monitoring the activation of NF-κB. A SEAP (secreted embryonic alkaline phosphatase) reporter gene was placed under the control of the IFN-β minimal promoter fused to five NF-κB and AP-1-binding sites. The SEAP was induced by activating NF-κB and AP-1 via stimulating HEK-Blue hTLR7 cells with TLR7 ligands. Therefore the reporter expression was regulated by the NF-κB promoter upon stimulation of human TLR7 for 20 hrs. The cell culture supernatant SEAP reporter activity was determined using QUANTI-Blue™ kit (Cat. #: rep-qb1, Invivogen, San Diego, Calif., USA) at a wavelength of 640 nm, a detection medium that turns purple or blue in the presence of alkaline phosphatase.
HEK293-Blue-hTLR7 cells were incubated at a density of 250,000˜450,000 cells/mL in a volume of 180 μL in a 96-well plate in Dulbecco's Modified Eagle's medium (DMEM) containing 4.5 g/L glucose, 50 U/mL penicillin, […], […], 2 mM L-glutamine, 10% (V/V) heat-inactivated fetal bovine serum for 24 hrs. Then the HEK293-Blue-hTLR-7 cells were incubated with addition of 20 μL test compound in a serial dilution in the presence of final DMSO at 1% and perform incubation under 37° C. in a CO2 incubator for 20 hrs. Then 20 μL of the supernatant from each well was incubated with 180 μL Quanti-blue substrate solution at 37° C. for 2 hrs and the absorbance was read at 620˜655 nm using a spectrophotometer. The signalling pathway that TLR7 activation leads to downstream NF-κB activation has been widely accepted, and therefore similar reporter assay was also widely used for evaluating TLR7 agonist (Tsuneyasu Kaisho and Takashi Tanaka, Trends in Immunology, Volume 29, Issue 7, July 2008, […]; Hiroaki Hemmi et al, Nature Immunology 3, 196-200 (2002)).
The Compounds and Examples of the present invention were tested in HEK293-hTLR-7 assay for their TLR7 agonism activity as described herein and results are listed in Table 1. […] The calculated ratio of EC50(prodrug)/EC50(active form) were within the range from 27.7 to about 8233.

[1] = Single dose PK study in Male Wister-Han Rats; type: in vivo
Protocol: Single dose PK study in Male Wister-Han Rats The single dose PK in Male Wister-Han Rats was performed to assess pharmacokinetic properties of tested compounds. Two groups of animals were dosed via Gavage (POE) of the respective compound. Blood samples (approximately 20 μL) were collected via Jugular vein or an alternate site at 15 min, 30 min, 1 h, 2 h, 4 h, 7 h and 24 h post-dose groups. Blood samples were placed into tubes containing EDTA-K2 anticoagulant and centrifuged at 5000 rpm for 6 min at 4° C. to separate plasma from the samples. After centrifugation, the resulting plasma was transferred to clean tubes for bioanalysis of both prodrug and active form on LC/MS/MS. In the groups that prodrugs were dosed, the concentration of prodrugs in the plasma samples was under the detection limit. The “tested compound” in Table 3 was used as the internal standard for testing the metabolite (active form) of “dose compound” in vivo. The pharmacokinetic parameters were calculated using non-compartmental module of WinNonlin® Professional 6.2. The peak concentration (Cmax) was recorded directly from experimental observations. The area under the plasma concentration-time curve ([…]) was calculated using the linear trapezoidal rule up to the last detectable concentration. Cmax and AUC0-last are two critical PK parameters related to the in vivo efficacy of the tested compound. […]

[2] = prodrug, read-out: HEK293-hTLR-7 EC50 (Prodrug)

| SMILES | EC50 (human TLR7; corresponding active form, read-out: HEK293-hTLR-7 EC50 (Active form)) | Cmax (nM) ([1]; 5 mg/kg oral dosing, male Wister-Han rats, plasma, tested compound Compound 8a (active form)) | EC50 (human TLR7; [2]) | Ratio (EC50(prodrug)/EC50(active form)) (human TLR7) | AUC0-last folds increase comparing with Compound 8a ([1]; oral administration, rats, prodrug versus active form) |
| --- | --- | --- | --- | --- | --- |
| CCS(=O)(=O)c1nc(N)c2[nH]c(=O)n(Cc3ccc(Cl)cc3)c2n1 [Compound 8a, 6-amino-9-[(4-chlorophenyl)methyl]-2-ethylsulfonyl-7H-purin-8-one] | 0.083 µM | Not detected | – | – | – |
| CCCN(C)C(=O)n1c(=O)n(Cc2ccc(Cl)cc2)c2nc(S(=O)(=O)CC)nc(N)c21 [Example 8, 6-Amino-9-[(4-chlorophenyl)methyl]-2-ethylsulfonyl-N-methyl-8-oxo-N-propyl-purine-7-carboxamide] | – | – | 14.9 µM | 179.5 | 14.5 folds |
| CCS(=O)(=O)c1nc(N)c2c(n1)n(Cc1ccc(C)cc1)c(=O)n2C(=O)N1CCCC1 [Example 17, 6-Amino-2-ethylsulfonyl-9-(p-tolylmethyl)-7-(pyrrolidine-1-carbonyl)purin-8-one] | – | – | 67 µM | 1030.8 | – |
| CCCN(C)C(=O)n1c(=O)n(Cc2ccc(F)cc2)c2nc(S(=O)(=O)CC)nc(N)c21 [Example 18, 6-Amino-2-ethylsulfonyl-9-[(4-fluorophenyl)methyl]-N-methyl-8-oxo-N-propyl-purine-7-carboxamide] | – | – | 2.4 µM | 40 | – |
| CCN(C)C(=O)n1c(=O)n(Cc2ccc(F)cc2)c2nc(S(=O)(=O)CC)nc(N)c21 [Example 19, 6-Amino-N-ethyl-2-ethylsulfonyl-9-[(4-fluorophenyl)methyl]-N-methyl-8-oxo-purine-7-carboxamide] | – | – | 494 µM | 8233 | – |
| CCCN(C)C(=O)n1c(=O)n(Cc2ccc(OC)cc2)c2nc(S(=O)(=O)CCC)nc(N)c21 [Example 20, 6-Amino-9-[(4-methoxyphenyl)methyl]-N-methyl-8-oxo-N-propyl-2-propylsulfonyl-purine-7-carboxamide] | – | – | 32.1 µM | 4012.5 | – |
| CCCS(=O)(=O)c1nc(N)c2c(n1)n(Cc1ccc(OC)cc1)c(=O)n2C(=O)N(C)CC [Example 21, 6-Amino-N-ethyl-9-[-(4-methoxyphenyl)methyl]-N-methyl-8-oxo-2-propylsulfonyl-purine-7-carboxamide] | – | – | 24.2 µM | 3025 | – |
| CCCN(C)C(=O)n1c(=O)n(Cc2ccc(Br)cc2)c2nc(S(=O)(=O)CC)nc(N)c21 [Example 22, 6-Amino-9-[(4-bromophenyl)methyl]-2-ethylsulfonyl-N-methyl-N-propyl-8-oxo-purine-7-carboxamide] | – | – | 13.1 µM | 570 | – |
| CCN(C)C(=O)n1c(=O)n(Cc2ccc(Br)cc2)c2nc(S(=O)(=O)CC)nc(N)c21 [Example 23, 6-Amino-9-[(4-bromophenyl)methyl]-N-ethyl-2-ethylsulfonyl-N-methyl-8-oxo-purine-7-carboxamide] | – | – | > 100 µM | >4348 | – |
